Test results from ChEMBL document CHEMBL1201862, “PubChem BioAssay data set” (2004).
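Growth conditions: 96-well plates. Treatment: test compound, 48 hours, 5 concentrations. Analysis: linear interpolation between bracketing concentrations; unreached endpoints set to highest concentration. At the GI50, growth is halved.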 Active and inactive are the calls of the source. Rule as the data show it: active = GI50 up to about 1.1 µM and inactive = higher.

Key:
Assay in all cases: DTP human tumour cell line panel, 48 h
A549 = test system: A549
COLO 205 = test system: COLO 205
HOP-62 = test system: HOP-62
HOP-92 = test system: HOP-92
HT-29 = test system: HT-29
IGROV-1 = test system: IGROV-1
K562 = test system: K562
KM-20L2 = test system: KM-20L2
LOX IMVI = test system: LOX IMVI
NCI-H226 = test system: NCI-H226
OVCAR-4 = test system: OVCAR-4
OVCAR-5 = test system: OVCAR-5
SF-268 = test system: SF-268
SF-539 = test system: SF-539
SK-MEL-2 = test system: SK-MEL-2
SK-MEL-5 = test system: SK-MEL-5
SK-OV-3 = test system: SK-OV-3
SW-620 = test system: SW-620
UO-31 = test system: UO-31
MOLT-4 = test system: MOLT-4

Measured: GI50

C#CC(C)(C)OCCCCOc1cc(O)c2c(=O)c3ccccc3n(C)c2c1
inactive: A549 > 100 µM | COLO 205 23.7 µM | HOP-62 > 100 µM | HOP-92 > 100 µM | HT-29 21.7 µM | IGROV-1 > 100 µM | K562 > 100 µM | KM-20L2 31.3 µM | LOX IMVI > 100 µM | NCI-H226 > 100 µM | OVCAR-4 > 100 µM | OVCAR-5 > 100 µM | SF-268 > 100 µM | SF-539 > 100 µM | SK-MEL-2 > 100 µM | SK-MEL-5 66.5 µM | SK-OV-3 > 100 µM | SW-620 > 100 µM | UO-31 > 100 µM

C=CCCN1CCc2c([nH]c3ccccc23)C1C(=O)O (centres undefined)
inactive: A549 > 100 µM | COLO 205 > 100 µM | HOP-62 > 100 µM | HOP-92 > 100 µM | HT-29 > 100 µM | IGROV-1 > 100 µM | K562 > 100 µM | KM-20L2 > 100 µM | LOX IMVI > 100 µM | MOLT-4 > 100 µM | NCI-H226 89.7 µM | OVCAR-4 > 100 µM | OVCAR-5 > 100 µM | SF-268 78.3 µM | SF-539 > 100 µM | SK-MEL-2 > 100 µM | SK-MEL-5 > 100 µM | SK-OV-3 > 100 µM | SW-620 > 100 µM | UO-31 > 100 µM

CC(=O)OCc1c(C)c2ccccc2n1C(C)=O
inactive: A549 53 µM | COLO 205 44.2 µM | HOP-62 63.1 µM | HOP-92 98.6 µM | HT-29 59.2 µM | IGROV-1 36.8 µM | K562 23.7 µM | KM-20L2 53 µM | LOX IMVI 45 µM | MOLT-4 29.7 µM | NCI-H226 87.5 µM | OVCAR-4 32.1 µM | OVCAR-5 > 100 µM | SF-268 43.6 µM | SF-539 38.2 µM | SK-MEL-2 21 µM | SK-MEL-5 35.2 µM | SK-OV-3 81.3 µM | SW-620 47 µM | UO-31 > 100 µM

ClCc1ccc2ccc3ccc(CCl)nc3c2n1
inactive: A549 4.76 µM | COLO 205 1.71 µM | HOP-62 4.29 µM | HOP-92 2.09 µM | HT-29 2.17 µM | IGROV-1 1.7 µM | K562 3.18 µM | KM-20L2 4.1 µM | LOX IMVI 1.56 µM | MOLT-4 1.73 µM | NCI-H226 2.28 µM | OVCAR-4 5.65 µM | OVCAR-5 2.85 µM | SF-268 4.19 µM | SF-539 2.25 µM | SK-MEL-2 1.77 µM | SK-MEL-5 1.4 µM | SK-OV-3 8.89 µM | SW-620 2.5 µM | UO-31 1.69 µM
